Source: patent US20260265305A1, “POLYPEPTIDE DERIVATIVE FOR ORAL DELIVERY” (Hangzhou Sciwind Biosciences Co., Ltd., priority 2023, published 2026)
Read-outs that look alike come from different tables or passages of the source. Numbered stars: 1 amine (or outer) side, 2 acyl side, 3 side chain; on linkers, the order of the positions; unused ones are H or OH. Square brackets hold non-standard residues; d marks the D form. Peptide text beside a SMILES is read from it. * marks the point of attachment. C20 diacid = O=C(O)CCCCCCCCCCCCCCCCCCC(=O)*; C18 diacid = O=C(O)CCCCCCCCCCCCCCCCC(=O)*; βAsp = O=C(O)[C@H](CC(=O)[*:2])N[*:1]; AEEA = NCCOCCOCC(=O)O; Inp = O=C(O)C1CCNCC1

How the values were obtained:
[1] = Heat accelerated stability assay of polypeptide solutions (40° C., pH about 7.4), reversed phase chromatography; type: physicochemical; details: 40° C.; for Concentration change on 26 d / Purity change on 26 d: Day 26; for Purity change on 7 d / Purity change on 26 d: reversed phase chromatography 214 nm; for Purity change on 7 d: purity on 7 d − purity on 0 d; for Purity change on 26 d: purity on 26 d − purity on 0 d
Procedure: A stability test chamber (BINDER GmbH), a 0.01 mg-readability balance (METTLER TOLEDO), a pH meter (METTLER TOLEDO), a biosafety cabinet (ESCO), T2G-II small-sized motor-driven capping machine (Changsha zhongya pharmaceutical equipment co. LTD), a high-speed refrigerated centrifuge (Eppendorf), a sterilizer cabinet (Shinva Medical), Agilent 1260 high-performance liquid chromatographer, and Sepax Bio-C18 4.6*250 mm 3 μm 200 Å reversed phase column were used.
Reagents and consumables included: ultrapure water (18.2 MΩ, self-made), acetonitrile (HPLC grade), trifluoroacetic acid (HPLC grade), sodium dihydrogen phosphate (pharmaceutical grade, Hunan Jiudian Hongyang Pharmaceutical Co., Ltd), hydrochloric acid (pharmaceutical grade, Hunan Er-Kang Pharmaceutical Co., Ltd), sodium hydroxide (Analytical Reagent grade, Hushi®, Sinopharm Chemical Reagent Co., Ltd), vials, rubber stoppers, disposable syringes, and sterile filters.
The lyophilized powder (1 mg/mL) of the polypeptide derivative prepared in accordance with the method of Example 1 was mixed with sodium dihydrogen phosphate (1.42 mg/mL) and dissolved in ultrapure water in the indicated mass-volume ratios. After adjusting pH to about 7.4 with hydrochloric acid/sodium hydroxide, the solution was filtered into a sterilized vial in a clean bench using a 0.22 μm sterile filter. The vial was then capped and placed into the stability test chamber at 40° C. Detections were made on Days 7 (7d) and 26 (26d), and during the assay, changes in the characteristics and properties of the polypeptide were observed and recorded. The sample was then centrifuged for 3 min at 10,000 rpm at 4° C., and the supernatant was transferred to a liquid phase sample vial for detecting the concentration and purity of the polypeptides using liquid phase chromatography described as below, wherein the concentration of the polypeptide=peak area/injection volume/extinction coefficient/60×flow rate, and the purity of the polypeptide=target peak area/total peak area×100%.
Conditions of the reversed phase chromatography Flow rate: 1.0 ml/min; Autosampler temperature: 15° C.; Column temperature: 25° C.; Detection wavelengths: 280 nm and 214 nm; Mobile phase A: 100% H2O+0.05% TFA; Mobile phase B: 100% ACN; and Gradient of elution listed in Table 6: […]

amylin receptor (hAMY3R) = biological target: T1, amylin receptor (hAMY3R) (Homo sapiens, UniProt O60896+P30988); assay: Amylin receptor agonism testing, CRE-luciferase assay in stably transfected CHO-K1/Ga15/AMY3 cells; type: cell-based; details: for EC50: incubation of 24 hours, Table 3, read-out: EC50, activity against the amylin receptor in cells; for Fold change in activity against hAMY3R: relative to D1 as benchmark
T1 construct: host or cells: CHO-K1/Ga15/AMY3 cells, further stably transfected with a CRE-luciferase plasmid
T1 sequence (P30988 25-474): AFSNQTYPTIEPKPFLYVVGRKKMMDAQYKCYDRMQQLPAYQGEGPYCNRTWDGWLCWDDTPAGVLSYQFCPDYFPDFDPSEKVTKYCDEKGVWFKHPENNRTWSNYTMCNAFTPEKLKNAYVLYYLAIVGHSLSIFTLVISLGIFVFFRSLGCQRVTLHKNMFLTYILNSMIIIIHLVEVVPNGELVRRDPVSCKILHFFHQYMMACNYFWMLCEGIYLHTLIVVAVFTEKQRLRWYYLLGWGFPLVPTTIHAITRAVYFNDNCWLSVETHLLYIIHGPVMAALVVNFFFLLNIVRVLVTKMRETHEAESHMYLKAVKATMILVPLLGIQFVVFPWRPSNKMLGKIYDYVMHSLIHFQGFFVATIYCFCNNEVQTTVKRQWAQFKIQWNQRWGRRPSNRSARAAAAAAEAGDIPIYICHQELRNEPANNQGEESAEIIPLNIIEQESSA
T1 sequence (O60896 24-148): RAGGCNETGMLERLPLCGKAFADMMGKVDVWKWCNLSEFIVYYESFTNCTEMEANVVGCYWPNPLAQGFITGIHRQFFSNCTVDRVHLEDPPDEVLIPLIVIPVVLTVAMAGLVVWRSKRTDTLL
Excerpt: The objective of this assay is to test the potency of the polypeptide derivatives in the present application on amylin and calcitonin receptors in vitro using a luciferase assay.
Using the standard protocol for construction of an amylin receptor/CRE-luc cell line, CHO-K1/Ga15/AMY3 cells (purchased from GenScript, with the calcitonin receptor and the receptor activity modifying peptide (RAMP) constructed already) were transfected with a plasmid containing a luciferase expression cassette driven by multiple copies of cAMP response elements (CREs). The cells were cultured in an F12 medium containing 200 ug/mL Zeocin, 2 ug/mL puromycin, 100 ug/mL hygromycin, and 400 ug/mL G418 to afford a stably transfected amylin receptor/CRE-luc cell line.
(§1) To each well of a white 96-well plate was added 50 μL of the tested sample solution at a respective concentration.
The stably transfected amylin receptor/CRE-luc CHO cells were resuspended in the growth medium at a certain density, and 50 μL of the cell suspension was added at a density of about 20,000 cells per well to the white 96-well plate containing the tested sample solution. After incubation of 24 hours at 37° C. and 5% CO2, 100 μL of a Luciferase substrate was added to each well, incubated for 3 minutes, and finally was tested for luminescence on SpectraMax L (Molecular Devices) with the software SoftMax Pro 7.0.3 GxP. A standard curve was plotted using the fluorescent intensities for calculation of EC50.

[2] = biological target: T2, calcitonin receptor (hCTR) (Homo sapiens, UniProt P30988); assay: Calcitonin receptor agonism, CRE-luciferase assay in stably transfected CHO-K1/CALCR/Ga15 cells; type: cell-based; details: for Fold change in activity against hCTR: relative to D1 as benchmark
T2 construct: host or cells: CHO-K1/CALCR/Ga15 cells, further stably transfected with a CRE-luciferase plasmid
T2 sequence (P30988 25-474): T1 sequence (P30988 25-474)
Procedure: Using the standard protocol, CHO-K1/CALCR/Ga15 cells (purchased from GenScript, with the calcitonin receptor constructed already) were transfected with a plasmid containing a luciferase expression cassette driven by multiple copies of cAMP response elements (CREs). The cells were cultured in an F12 medium containing 200 ug/mL Zeocin, 2 ug/mL puromycin, and 100 ug/mL hygromycin to afford a stably transfected calcitonin receptor/CRE-luc cell line.
as §1
The stably transfected calcitonin receptor/CRE-luc CHO cells were resuspended in the growth medium at a certain density, and 50 μL of the cell suspension was added at a density of about 20,000 cells per well to the white 96-well plate containing the tested sample solution. After incubation of 24 hours at 37° C. and 5% CO2, 100 μL of a Luciferase substrate was added to each well, incubated for 3 minutes, and finally was tested for luminescence on SpectraMax L (Molecular Devices) with the software SoftMax Pro 7.0.3 GxP. A standard curve was plotted using the fluorescent intensities for calculation of EC50.

[3] = incubation of 24 hours, Table 4, read-out: EC50, activity against the calcitonin receptor in cells

Concentration change on 26 d ([1]; pH about 7.4, 1 mg/mL)	Purity change on 7 d ([1]; Day 7)	Purity change on 26 d [1]	EC50 (amylin receptor (hAMY3R))	Fold change in activity against hAMY3R (amylin receptor (hAMY3R))	EC50 [2, 3]	Fold change in activity against hCTR [2]	increase in agonistic activity against the amylin receptor (amylin receptor (hAMY3R); compared with M17)	increase in the ratio of activity against the amylin receptor to agonistic activity against the calcitonin receptor (amylin receptor (hAMY3R); relative to the benchmark D1)	EC50 ([2]; Table 5 integrated analysis, read-out: hCTR EC50)	Compound	Concentration change on 7 d ([1]; pH about 7.4, 1 mg/mL, Day 7)
−3.954%	−1.59%	−7.24%	7 pM	5.143	0.081 nM	1.061				CC(C)C[C@H](NC(=O)[C@H](CCCNC(=N)N)NC(=O)CNC(=O)[C@H](CC(C)C)NC(=O)[C@@H](NC(=O)[C@H](C)NC(=O)[C@@H](NC(=O)[C@H](CO)NC(=O)[C@H](CC(C)C)NC(=O)[C@H](CCC(N)=O)NC(=O)[C@H](CO)NC(=O)[C@H](C)NC(=O)COCCOCCNC(=O)COCCOCCNC(=O)[C@H](CCC(=O)O)NC(=O)CCCCCCCCCCCCCCCCC(=O)O)[C@@H](C)O)C(C)C)C(=O)N[C@@H](CO)C(=O)N[C@@H](CC(=O)O)C(=O)N[C@@H](CCC(=O)O)C(=O)N[C@@H](CC(C)C)C(=O)N[C@@H](Cc1c[nH]cn1)C(=O)N[C@@H](CCCNC(=N)N)C(=O)N[C@@H](CC(C)C)C(=O)N[C@@H](CCC(N)=O)C(=O)N[C@@H](CC(=O)O)C(=O)N[C@@H](Cc1ccc(O)cc1)C(=O)N1CCC[C@H]1C(=O)N[C@@H](CCCNC(=N)N)C(=O)N[C@H](C(=O)N[C@@H](CC(=O)O)C(=O)N[C@H](C(=O)NCC(=O)N[C@@H](CO)C(=O)NCC(=O)N[C@@H](CO)C(=O)N1CCC[C@H]1C(N)=O)C(C)C)[C@@H](C)O [M24] ({C18 diacid}-E[AEEA][AEEA]ASQLSTAVLGRLSDELHRLQDYPRTDVGSGSP-NH2)	
−5.268%	No change	−4.34%	1 pM	36.000		0.848	~70 folds	about 42.5 fold	0.101 nM	CC(C)C[C@H](NC(=O)[C@H](CCCNC(=N)N)NC(=O)CNC(=O)[C@H](CC(C)C)NC(=O)[C@@H](NC(=O)[C@H](C)NC(=O)[C@@H](NC(=O)[C@H](CO)NC(=O)[C@H](CC(C)C)NC(=O)[C@H](CCC(N)=O)NC(=O)[C@H](CO)NC(=O)[C@H](C)NC(=O)COCCOCCNC(=O)COCCOCCNC(=O)C1CCN(C(=O)CCCCCCCCCCCCCCCCC(=O)O)CC1)[C@@H](C)O)C(C)C)C(=O)N[C@@H](CO)C(=O)N[C@@H](CC(=O)O)C(=O)N[C@@H](CCC(=O)O)C(=O)N[C@@H](CC(C)C)C(=O)N[C@@H](Cc1c[nH]cn1)C(=O)N[C@@H](CCCNC(=N)N)C(=O)N[C@@H](CC(C)C)C(=O)N[C@@H](CCC(N)=O)C(=O)N[C@@H](CC(=O)O)C(=O)N[C@@H](Cc1ccc(O)cc1)C(=O)N1CCC[C@H]1C(=O)N[C@@H](CCCNC(=N)N)C(=O)N[C@H](C(=O)N[C@@H](CC(=O)O)C(=O)N[C@H](C(=O)NCC(=O)N[C@@H](CO)C(=O)NCC(=O)N[C@@H](CO)C(=O)N1CCC[C@H]1C(N)=O)C(C)C)[C@@H](C)O [M30] ({C18 diacid-Inp-AEEA-AEEA}-ASQLSTAVLGRLSDELHRLQDYPRTDVGSGSP-NH2)	
−8.378%	1.12%	−1.96%		2.118	0.073 nM	1.178				CC(C)C[C@H](NC(=O)[C@H](CCCNC(=N)N)NC(=O)CNC(=O)[C@H](CC(C)C)NC(=O)[C@@H](NC(=O)[C@H](C)NC(=O)[C@@H](NC(=O)[C@H](CO)NC(=O)[C@H](CC(C)C)NC(=O)[C@H](CCC(N)=O)NC(=O)[C@H](CO)NC(=O)[C@H](C)NC(=O)C[C@H](NC(=O)CCCCCCCCCCCCCCCCCCC(=O)O)C(=O)O)[C@@H](C)O)C(C)C)C(=O)N[C@@H](CO)C(=O)N[C@@H](CC(=O)O)C(=O)N[C@@H](CCC(=O)O)C(=O)N[C@@H](CC(C)C)C(=O)N[C@@H](Cc1c[nH]cn1)C(=O)N[C@@H](CCCNC(=N)N)C(=O)N[C@@H](CC(C)C)C(=O)N[C@@H](CCC(N)=O)C(=O)N[C@@H](CC(=O)O)C(=O)N[C@@H](Cc1ccc(O)cc1)C(=O)N1CCC[C@H]1C(=O)N[C@@H](CCCNC(=N)N)C(=O)N[C@H](C(=O)N[C@@H](CC(=O)O)C(=O)N[C@H](C(=O)NCC(=O)N[C@@H](CO)C(=O)NCC(=O)N[C@@H](CO)C(=O)N1CCC[C@H]1C(N)=O)C(C)C)[C@@H](C)O [M12] ({C20 diacid-βAsp}-ASQLSTAVLGRLSDELHRLQDYPRTDVGSGSP-NH2)	No change (concentration change of less than 1% (denoted as “no change”))
